Values of other authors as cited in PMC2229313 (The Journal of General Physiology, 1996).

Tested on: IFM/QQQ mutant Na channel
Settings: cytoplasmic application; ref Eaholtz et al., 1994

Substance: KIQMK
- effect on kinetics of IFM/QQQ mutant Na currents: fails to affect the kinetics of the inactivation-impaired Na channel
